From the supplement of paper PMC10307832

How the values were obtained:
Assay in all cases: relative viability (nuclei count vs DMSO), 5 days (fraction); higher = more cells survive
Kobe2602 = compound: C1=CC(=CC=C1NC(=S)NNC2=C(C=C(C=C2[N+](=O)[O-])C(F)(F)F)[N+](=O)[O-])F [Kobe2602]
How it was run: (§1)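 Viability was defined as treated-well nuclei divided by vehicle-well nuclei, with the median taken over replicate plates. Cells from lung cancer lines sat overnight at 37 °C in 1536-well plates, received five √10-spaced library-drug doses by pinning on vehicle-anchored plates, and grew 5 days without medium change before one-step fixation, permeabilisation and Hoechst staining, 4× imaging and MetaXpress nuclear counts. Only plates with control CV under 25% and at least one doubling were kept.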

Cabozantinib = compound: COc1cc2nccc(Oc3ccc(NC(=O)C4(C(=O)Nc5ccc(F)cc5)CC4)cc3)c2cc1OC [Cabozantinib]
How it was run: as §1

Zosuquidar = compound: O[C@@H](COc1cccc2ncccc12)CN1CCN([C@@H]2c3ccccc3[C@@H]3[C@H](c4ccccc42)C3(F)F)CC1 [Zosuquidar]
How it was run: as §1

Zosuquidar + Foretinib = compound: O[C@@H](COc1cccc2ncccc12)CN1CCN([C@@H]2c3ccccc3[C@@H]3[C@H](c4ccccc42)C3(F)F)CC1 [Zosuquidar] + COc1cc2c(Oc3ccc(NC(=O)C4(C(=O)Nc5ccc(F)cc5)CC4)cc3F)ccnc2cc1OCCCN1CCOCC1 [Foretinib] (partner 0.25 µM)
How it was run: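 Lung cancer cell lines in 1536-well plates got either a single drug or a fixed anchor-drug dose together with five library-drug doses (not always all listed) in √10 steps, by pin tool, on the day after seeding. Nuclei were counted after 5 days, and relative viability is the treated-to-vehicle ratio of nuclei counts. Values are medians of duplicate plates.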

| Cell Line | relative viability (Kobe2602; 0.2 µM) | relative viability (Kobe2602; 0.6325 µM) | relative viability (Kobe2602; 2 µM) | relative viability (Kobe2602; 6.325 µM) | relative viability (Kobe2602; 20 µM) | relative viability (Cabozantinib; 0.02 µM) | relative viability (Cabozantinib; 0.06325 µM) | relative viability (Cabozantinib; 0.2 µM) | relative viability (Cabozantinib; 0.6325 µM) | relative viability (Cabozantinib; 2 µM) | relative viability (Zosuquidar; 0.01 µM) | relative viability (Zosuquidar; 0.03162 µM) | relative viability (Zosuquidar; 0.1 µM) | relative viability (Zosuquidar; 0.3162 µM) | relative viability (Zosuquidar; 1 µM) | relative viability (Zosuquidar + Foretinib; first compound 0.01 µM) | relative viability (Zosuquidar + Foretinib; first compound 0.03162 µM) | relative viability (Zosuquidar + Foretinib; first compound 0.1 µM) | relative viability (Zosuquidar + Foretinib; first compound 0.3162 µM) | relative viability (Zosuquidar + Foretinib; first compound 1 µM) |
| --- | --- | --- | --- | --- | --- | --- | --- | --- | --- | --- | --- | --- | --- | --- | --- | --- | --- | --- | --- | --- |
| ABC-1 | 0.941 | 1.1 | 0.769 | 1.06 | 1.04 | 0.902 | 1.05 | 0.993 | 0.875 | 0.887 | 0.926 | 0.841 | 1.04 | 0.986 | 0.911 | 0.926 | 1.03 | 1.17 | 1.32 | 0.95 |
| NCI-H1395 | 0.978 | 1.22 | 0.893 | 1.06 | 0.976 | 0.797 | 1.23 | 1.01 | 0.938 | 0.815 | 0.914 | 0.869 | 0.717 | 1.18 | 0.891 | 0.98 | 0.957 | 0.824 | 1.06 | 1 |
| NCI-H2085 | 1.02 | 0.994 | 0.959 | 0.991 | 0.96 | 1.07 | 1.09 | 0.942 | 1.05 | 1.01 | 0.977 | 0.955 | 0.797 | 1 | 0.959 | 0.855 | 1.02 | 0.837 | 1.01 | 0.981 |
| NCI-H661 | 1 | 0.952 | 0.983 | 0.991 | 1.02 | 0.986 | 1.03 | 1.01 | 1.02 | 1.06 | 0.945 | 0.976 | 0.91 | 1.03 | 0.982 | 1.05 | 0.895 | 0.885 | 1.06 | 0.988 |
| NCI-H1944 | 1 | 1.07 | 0.899 | 0.992 | 0.987 | 0.826 | 1.01 | 0.961 | 1.01 | 0.916 | 0.942 | 0.88 | 0.847 | 1.08 | 0.909 | 0.774 | 0.862 | 0.898 | 0.883 | 0.824 |
| NCI-H2170 | 1.03 | 0.958 | 0.974 | 0.992 | 0.871 | 0.991 | 1 | 0.864 | 1.02 | 1.04 | 0.989 | 1 | 0.932 | 0.971 | 0.954 | 0.979 | 1.02 | 0.993 | 1.02 | 1.02 |
| IA-LM | 0.932 | 1.08 | 0.923 | 0.895 | 0.929 | 1.21 | 1.09 | 0.9 | 1.04 | 1.27 | 0.939 | 1.01 | 0.838 | 0.945 | 0.865 | 1.09 | 1.23 | 1.26 | 1.34 | 1.17 |
| NCI-H322M | 0.97 | 1.07 | 1.03 | 0.984 | 1.08 | 0.874 | 1.17 | 0.694 | 0.983 | 0.952 | 0.907 | 1.07 | 0.667 | 0.924 | 0.916 | 0.961 | 1.19 | 0.723 | 0.983 | 0.972 |
| A549 | 0.946 | 0.965 | 0.975 | 0.929 | 0.97 | 0.981 | 1.01 | 0.991 | 0.941 | 0.907 | 0.895 | 0.802 | 0.935 | 1.09 | 0.98 | 0.879 | 0.84 | 0.906 | 0.983 | 0.956 |
| LCLC-103H | 1.01 | 1.01 | 0.987 | 0.992 | 0.981 | 0.824 | 1.16 | 1.02 | 1.05 | 0.953 | 0.911 | 0.973 | 0.752 | 1.02 | 1.06 | 0.694 | 0.678 | 0.698 | 0.844 | 0.809 |
| NCI-H647 | 0.938 | 1.09 | 0.936 | 0.91 | 0.948 | 0.994 | 1.14 | 0.986 | 0.92 | 0.881 | 0.908 | 0.951 | 0.918 | 1.13 | 0.884 | 1.21 | 1.13 | 1.32 | 1.27 | 1.02 |
| LK-2 | 1.14 | 1.12 | 0.974 | 0.887 | 1.19 | 0.764 | 1.26 | 0.924 | 0.927 | 0.926 | 0.997 | 1.03 | 0.934 | 1.11 | 1.01 | 1.32 | 1.03 | 1.3 | 1.05 | 1.23 |
| NCI-H1755 | 0.962 | 0.971 | 0.993 | 0.985 | 0.994 | 0.994 | 1.04 | 0.977 | 0.923 | 0.857 | 0.995 | 1.01 | 0.94 | 1.05 | 1.01 | 0.908 | 0.894 | 0.841 | 0.959 | 0.932 |
| EPLC-272H | 0.98 | 1.16 | 0.952 | 1.02 | 1.04 | 0.921 | 1.17 | 0.821 | 0.872 | 0.856 | 0.963 | 0.995 | 0.781 | 1.06 | 0.892 | 0.778 | 0.683 | 0.57 | 0.817 | 0.671 |
| NCI-H2228 | 1.02 | 1.11 | 1.01 | 0.944 | 1.11 | 1.05 | 1.11 | 0.938 | 0.879 | 0.871 | 0.901 | 0.979 | 1.02 | 0.952 | 1.03 | 0.933 | 0.438 | 0.995 | 0.768 | 0.714 |
